Data: ChEMBL document CHEMBL1156844, “Inhibition of neuraminidase activity by polyphenol compounds isolated from the roots of Glycyrrhiza uralensis” (Bioorg Med Chem Lett, 2010)

Key:
[1] = Inhibition of Spanish flu (A/Bervig_Mission/1/18) neuraminidase by noncompetitive inhibition assay; set-up: species or system Influenza A virus (A/Brevig Mission/1/1918(H1N1))
[2] = Inhibition of Spanish flu (A/Bervig_Mission/1/18) neuraminidase; set-up: species or system Influenza A virus (A/Brevig Mission/1/1918(H1N1))
[3] = tested on: Influenza A virus (A/Brevig Mission/1/1918(H1N1)); test: Inhibition of Spanish flu (A/Bervig_Mission/1/18) neuraminidase at 200 uM

SMILES | Ki [1] [µM] | IC50 [2] [µM] | inhibition [3] [%]
COc1c(CC=C(C)C)c(O)cc2oc(-c3ccc(O)cc3O)cc12 [LICOCOUMARONE] | 12.1 | 27.8 | –
O=C(/C=C/c1ccc(O[C@@H]2O[C@H](CO)[C@@H](O)[C@H](O)[C@H]2O)cc1)c1ccc(O)cc1O [ISOLIQUIRITIN] | 94 | 124 | –
O=C(/C=C/c1ccc(O[C@@H]2O[C@H](CO)[C@@H](O)[C@H](O)[C@H]2O[C@H]2OC[C@@](O)(CO)[C@@H]2O)cc1)c1ccc(O)cc1O [ISOLIQUIRITIN APIOSIDE] | 14.2 | 12.9 | –
O=C1C[C@@H](c2ccc(O[C@@H]3O[C@H](CO)[C@@H](O)[C@H](O)[C@H]3O[C@H]3OC[C@@](O)(CO)[C@@H]3O)cc2)Oc2cc(O)ccc21 [LIQUIRITIN APIOSIDE] | 20.4 | 18.2 | –
CC(C)=CCc1c(O)cc2oc(-c3ccc(O)cc3)c(O)c(=O)c2c1O [LICOFLAVONOL] | 33 | 20.6 | –
COc1c2c(cc3oc(=O)c4c5ccc(O)cc5oc4c13)OC(C)(C)CC2 [ISOGLYCYROL] | 77.5 | 92.4 | –
COc1cc(O)c2c(=O)c(OC)c(-c3ccc(O)cc3)oc2c1 [KUMATAKENIN] | 90.3 | 36.4 | –
O=C(/C=C/c1ccc(O)cc1)c1ccc(O)cc1O [ISOLIQUIRITIGENIN] | 9.9 | 9 | –
COc1ccc(-c2coc3cc(O[C@@H]4O[C@H](CO)[C@@H](O)[C@H](O)[C@H]4O)ccc3c2=O)cc1 | – | – | 30
O=C1C[C@@H](c2ccc(O)cc2)Oc2cc(O)ccc21 [LIQUIRTIGENIN] | 33.1 | 46.8 | –
COc1c2c(cc3oc(=O)c(-c4ccc(O)cc4O)cc13)OC(C)(CO)CC2 (stereo unspecified) | – | – | 10
CCOC(=O)C1=C[C@@H](OC(CC)CC)[C@H](NC(C)=O)[C@@H](N)C1 [OSELTAMIVIR] | – | 1.59 | –
COc1cc2c(c(OC)c1CC=C(C)C)C(=O)[C@H](c1ccc(O)c(CC=C(C)C)c1O)CO2 | – | – | 30
COc1c(CC=C(C)C)c(O)cc2oc(=O)c3c4ccc(O)cc4oc3c12 [GLYCYROL] | 2.9 | 3.1 | –
COc1c(CC=C(C)C)c(O)cc2c1C[C@H](c1ccc(O)cc1O)CO2 | – | – | 20
COc1cc2c(c(OC)c1CC=C(C)C)C[C@H](c1ccc(O)cc1O)CO2 | – | – | 20
O=C1C[C@@H](c2ccc(O[C@@H]3O[C@H](CO)[C@@H](O)[C@H](O)[C@H]3O)cc2)Oc2cc(O)ccc21 [LIQUIRITIN] | 124 | 82.3 | –
COc1cc2oc(=O)c(-c3ccc(O)cc3O)cc2c(OC)c1CC=C(C)C | – | – | 10
COc1cc(O)ccc1C(=O)/C=C/c1ccc(O)cc1 | 20.1 | 24.3 | –
